# Assay results as given in patent publication US10660935B2, “Methods for ameliorating memory impairment in a memory disorder caused by neuronal cell death or Abeta aggregation using a peptide” (JAPAN BIO PRODUCTS Co., Ltd., priority 2017, dated 2020).
# Experiments:
# [1] = tested on: Aβ25-35-treated murine cerebral cortical neural cells; experiment: Quantitative experiment for dendritic elongation; assay type: cell-based, ddY mouse; conditions: compared with Vehicle
# Experimental: (§1) Murine cerebral cortical neural cells were prepared by the following method. Fetuses extracted from a 14-day […] ddY mouse (Japan SLC, Shizuoka) were washed with PBS, then decapitated, and added in a medium made for primary culture [12% equine serum (Life Technologies), 2 mM L-glutamic acid, and 0.6% glucose dissolved in Neurobasal media (Life Technologies, Carlsbad, Calif., USA)]. Only cerebral cortex was isolated in the medium under a stereomicroscope (SZ-61, Olympus, Tokyo).
# (§2) Cerebral cortex was cut into about 1 mm-sized cubes in a safety cabinet. Centrifugation was performed at 700 rpm for 3 minutes, then the supernatant was removed, and to the precipitate was added 2 mL of 0.05% trypsin-0.53 mM EDTA solution (Life Technologies) to make a suspension. The suspension was incubated at 37° C. for 15 minutes with stirring for every 5 minutes, loaded with 4 mL of the medium, centrifuged at 700 rpm for 3 minutes to remove the supernatant, and to the precipitate was added 2 mL of 600 U/mL DNase I (Wako Pure Chemical Co., Ltd)-0.03% trypsin inhibitor (Life Technologies)-PBS solution to make a suspension.
# (§3) The suspension was further incubated at 37° C. for 15 minutes with stirring for every 5 minutes, loaded with 4 mL of the medium, and centrifuged at 700 rpm for 3 minutes. The sediment was loaded with 4 mL of a calcium-magnesium-free Hank's balanced salt solution (HBSS), and centrifuged at 700 rpm for 3 minutes. 4 mL of the medium was added to the sediment.
# The sediment loaded with the medium was gently suspended with a Pasteur pipette in which its tip had been heated and smoothed, until the cell clumps were invisible, and then filtrated with a 70 μm nylon cell strainer (Falcon, N.J., USA). Cell culture was performed in an 8-well chamber slide (falcon). Cells were seeded into the one coated the day before [in which Poly-D-Lysine (PDL, Wako Pure Chemical Co., Ltd) diluted with PBS to 0.005 mg/mL was plated and incubated at 37° C.; on the day of culture, it was washed twice with sterilized purified water.] Culture was started at 37° C. and 10% CO2 under saturated vapor.
# In quantitative experiment for dendritic elongation, the medium was all changed with a fresh medium containing B-27 supplement (Invitrogen) instead of equine serum 5 hours and 3 days after start of culture. At medium change after 3 days, the pre-aggregated partial sequence fragment of amyloid beta (Aβ25-35) was added up to 10 μM. After another 3 days, each peptide or solvent was added when the medium was all changed into a fresh one, and after another 4 days, immunostaining was performed.
# Immunostaining for quantifying dendritic elongation was performed as follows. After the end of the drug treatment term, the medium was removed and the cells were washed with PBS, added with 4% paraformaldehyde (PFA, Wako Pure Chemical Co., Ltd)-PBS solution, left standing at room temperature for an hour, and fixed. Wash with 0.3% triton X-100 (Wako Pure Chemical Co., Ltd)-PBS solution for 5 minutes was performed twice. Then, a primary antibody solution (0.3% triton X-100-PBS solution, 1% normal goat serum [Wako Pure Chemical Co., Ltd], a primary antibody) was added, and reacted at 4° C. overnight.
# For the primary antibody, rabbit anti-MAP2 polyclonal antibody (1:2000) (Abcam, Cambridge, UK) was used. The next day, the primary antibody solution was removed; wash was performed twice with 0.3% triton X-100-PBS solution for 5 minutes; and then a secondary antibody solution [0.3% triton X-100-PBS solution, Alexa Fluor 488-labeled goat anti-rabbit IgG antibody (1:200) (Molecular Probes, Eugene, Oreg., USA)] was added, and reacted under shading at room temperature for 2 hours. After the reaction, the secondary antibody solution was removed, and the cells were washed twice with PBS for 5 minutes, stained for nuclei with DAPI staining, and then embedded with Aqua-Poly/Mount (Polysciences, Warrington, USA). […]
# [2] = tested on: Aβ25-35-treated murine cerebral cortical neural cells; experiment: Quantitative experiment for presynaptic density; assay type: cell-based, ddY mouse; conditions: 21-day culture
# Experimental: as §1, §2, §3
# The sediment loaded with the medium was gently suspended with a Pasteur pipette in which its tip had been heated and smoothed, until the cell clumps were invisible, and then filtrated with a 70 μm nylon cell strainer (Falcon, N.J., USA). Cell culture was performed in an 8-well chamber slide (falcon). […]
# Immunostaining for quantifying presynaptic density was performed as follows. […]
# 5XFAD mice = experiment: Object recognition memory test; assay type: in vivo, mouse; conditions: continuous intraventricular infusion for 28 days keeping 10 nM in cerebrospinal fluid, 24 hours interval between training and testing, P<0.05
# Source text: Alzheimer's disease model mice: Transgenic mice that are animal models for Alzheimer's disease (5XFAD) were obtained from the Jackson Laboratories (Bar Harbor, Me., USA). 5XFAD mice overexpress human APP695 cDNA having mutations of Swedish (K670N and M671L), Florida (I716V), and London (V717I), and human PS1 cDNA (mutations at M146L and L286V) under transcriptional control of the neuron-specific murine Thy-1 promoter (Oakley, H. et al., J Neurosci, 26, 10129-10140, 2006). Those were maintained by crossing B6/SJL F1 breeders with hemizygous transgenic mice. […]
# GPPGPAG (SEQ ID NO: 1) was dissolved in an artificial cerebrospinal fluid, and an osmotic minipump model 1004 (ALZET Osmotic Pumps, Cupertino, USA) containing the solution inserted and fixed into the right lateral ventricle of each 5XFAD mouse to inject the solution into the lateral ventricle continuously for 28 days. […] Specifically, from a peptide flow of 0.11 μL/h from the pump and a production of cerebrospinal fluid of 18 μL/h in the mouse, the concentration of the peptide solution was calculated such that the peptide concentration in the murine cerebrospinal fluid would be kept at 10 nM (which was an effective concentration in the cell experiments), and the solution prepared thereby was loaded into the pump. […]
# [3] = posttreatment with 1 nM peptide for 4 days after 10 μM Aβ25-35 for 3 days
# [4] = posttreatment with 10 nM peptide for 4 days after 10 μM Aβ25-35 for 3 days
Substance,"density of dendrites (length of MAP2-positive dendrites per neural cell) [1, 3]","density of dendrites (length of MAP2-positive dendrites per neural cell) [1, 4]","presynaptic density on dendrites (synaptophysin-positive area per dendrite length) ([2]; posttreatment with 1 nM, 10 nM and 100 nM, 10 μM Aβ25-35 for 3 days, peptide for 4 days)","presynaptic density on dendrites (synaptophysin-positive area per dendrite length) ([2]; posttreatment with 10 nM, 10 μM Aβ25-35, compared with Vehicle)","presynaptic density on dendrites (synaptophysin-positive area per dendrite length) ([2]; posttreatment with 100 nM, 10 μM Aβ25-35, compared with Vehicle)",exploratory preferential index at the testing stage relative to the training stage (5XFAD mice)
GPPGPP: comparison peptide of amino acid sequence GPPGPP (SEQ ID NO: 3) (P3),neither treatment with 1 nM nor 10 nM was any effect observed,neither treatment with 1 nM nor 10 nM was any effect observed,,,,
GPPGPAG (P1),,significant increase in density of dendrites,concentration-dependent increase in presynaptic density,significant increase,significant increase,significantly increased
PPGPAG: comparison peptide of amino acid sequence PPGPAG (SEQ ID NO: 5) (P5),neither treatment with 1 nM nor 10 nM was any effect observed,neither treatment with 1 nM nor 10 nM was any effect observed,,,,
GPPGPPG (P2),neither treatment with 1 nM nor 10 nM was any effect observed,neither treatment with 1 nM nor 10 nM was any effect observed,,,,
GPPGPA: comparison peptide of amino acid sequence GPPGPA (SEQ ID NO: 4) (P4),neither treatment with 1 nM nor 10 nM was any effect observed,neither treatment with 1 nM nor 10 nM was any effect observed,,,,
